Measured values taken from patent publication US8937091B2 (Japan Science and Technology Agency, priority 2009, dated 2015).

Columns and labels:
[1] = system: IICR (IP3 induced calcium release) in CHO cells; experiment: Assay of IICR (IP3 induced calcium release)-inhibiting action; type: cell-based, Chinese hamster; conditions: Cricetulus griseus, CHO; for inhibition at 10 µM: test compound 10 μmol; for inhibition at 10 µM / inhibition at 30 µM / inhibition at 100 µM: CHO cells, 10 μM ATP, read-out: IICR level (percentage of inhibition); for inhibition at 30 µM: test compound 30 μmol; for inhibition at 100 µM: test compound 100 μmol
In short: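 Inhibition (%) of the intracellular calcium increase triggered by 10 μM ATP, measured in CHO cells in BSS with calcium. Compound given 1 min after the buffer exchange and 2 min before ATP; values reported per compound concentration.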

[2] = system: SOCE (store operated calcium entry) in CHO cells; experiment: Assay of SOCE (store operated calcium entry)-inhibiting action; type: cell-based, Chinese hamster; conditions: Cricetulus griseus, CHO; for inhibition at 10 µM: test compound 10 μmol; for inhibition at 10 µM / inhibition at 30 µM / inhibition at 100 µM: CHO cells, thapsigargin, read-out: SOCE level (percentage of inhibition); for inhibition at 30 µM: test compound 30 μmol; for inhibition at 100 µM: test compound 100 μmol
In short: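 CHO cells in calcium-free BSS received compound, then 1 μM thapsigargin 2 min later to deplete stores; after 9 min, 2 mM calcium chloride (final) added. Percent inhibition of the rise in intracellular calcium determined at various compound concentrations.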

SMILES: CC(C)N(CCC(=O)c1ccsc1)Cc1ccccc1 [Example 222, 2-(N-isopropylbenzyl)aminoethyl-3-thiophenylketone]
- inhibition at 10 µM [1]: 0%
- inhibition at 30 µM [1]: 30%
- inhibition at 100 µM [1]: 80%
- inhibition at 10 µM [2]: 0%
- inhibition at 30 µM [2]: 0%
- inhibition at 100 µM [2]: 10%

SMILES: CN(CCC(=O)c1ccc(Cl)s1)Cc1ccccc1 [Example 279, 2-(N-methylbenzyl)aminoethyl-5-chloro-2-thienylketone]
- inhibition at 10 µM [1]: 20%
- inhibition at 30 µM [1]: 0%
- inhibition at 100 µM [1]: 40%
- inhibition at 30 µM [2]: 30%
- inhibition at 100 µM [2]: 40%

SMILES: O=C(CCNCc1ccccc1)c1ccncc1 [Example 271, 2-(N-benzyl)aminoethyl-4-pyridylketone]
- inhibition at 10 µM [1]: 10%
- inhibition at 30 µM [1]: 0%
- inhibition at 100 µM [1]: 40%
- inhibition at 30 µM [2]: 0%
- inhibition at 100 µM [2]: 10%

SMILES: CCN(CO)CCC(=O)c1ccc(Br)s1 [Example 362, 2-(N-hydroxymethyl-N-ethyl)aminoethyl-5-bromo-2-thienylketone]
- inhibition at 10 µM [1]: 0%
- inhibition at 30 µM [1]: 0%
- inhibition at 100 µM [1]: 70%
- inhibition at 10 µM [2]: 11%
- inhibition at 30 µM [2]: 13%
- inhibition at 100 µM [2]: 23%

SMILES: CC(C)(C)N(CCC(=O)c1ccc(Cc2ccccc2)cc1)Cc1ccccc1 [Example 105, 2-(N-t-butylbenzyl)aminoethyl-4-benzylphenylketone]
- inhibition at 10 µM [1]: 40%
- inhibition at 30 µM [1]: 70%
- inhibition at 100 µM [1]: 90%
- inhibition at 10 µM [2]: 0%
- inhibition at 30 µM [2]: 20%
- inhibition at 100 µM [2]: 40%

SMILES: O=C(CCNCCS)c1ccc(Br)s1 [Example 335, 2-(N-mercaptoethyl)aminoethyl-5-bromo-2-thienylketone]
- inhibition at 10 µM [1]: 10%
- inhibition at 30 µM [1]: 50%
- inhibition at 100 µM [1]: 70%
- inhibition at 10 µM [2]: 20%
- inhibition at 30 µM [2]: 30%
- inhibition at 100 µM [2]: 50%

SMILES: O=C(CCNc1ccccc1O)c1ccc(Br)s1 [Example 336, 2-(N-hydroxyphenyl)aminoethyl-5-bromo-2-thienylketone]
- inhibition at 10 µM [1]: 20%
- inhibition at 30 µM [1]: 10%
- inhibition at 100 µM [1]: 60%
- inhibition at 10 µM [2]: 10%
- inhibition at 30 µM [2]: 0%
- inhibition at 100 µM [2]: 0%

SMILES: CC(C)N(CCO)CCC(=O)c1cccs1 [Example 194, 2-(N-isopropylhydroxyethyl)aminoethyl-2-thiophenylketone]
- inhibition at 10 µM [1]: 0%
- inhibition at 30 µM [1]: 0%
- inhibition at 100 µM [1]: 0%
- inhibition at 10 µM [2]: 0%
- inhibition at 30 µM [2]: 0%
- inhibition at 100 µM [2]: 10%

SMILES: CC(C)N(CCC(=O)c1ccccc1)Cc1ccccc1 [Example 69, 2-(isopropylbenzyl)aminoethylphenylketone]
- inhibition at 10 µM [1]: 20%
- inhibition at 30 µM [1]: 20%
- inhibition at 100 µM [1]: 90%
- inhibition at 10 µM [2]: 0%
- inhibition at 30 µM [2]: 10%
- inhibition at 100 µM [2]: 20%

SMILES: Cc1csc(C(=O)CCN(Cc2ccccc2)C(C)(C)C)c1 [Example 315, 2-(N-benzyl-t-butyl)aminoethyl-4-methyl-2-thienylketone]
- inhibition at 10 µM [1]: 80%
- inhibition at 30 µM [1]: 90%
- inhibition at 100 µM [1]: 100%
- inhibition at 10 µM [2]: 0%
- inhibition at 30 µM [2]: 0%
- inhibition at 100 µM [2]: 30%

SMILES: CC(C)N(CCC(=O)c1cccnc1)Cc1ccccc1 [Example 106, 2-(N-isopropylbenzyl)aminoethyl-3-pyridylketone]
- inhibition at 10 µM [1]: 90%
- inhibition at 30 µM [1]: 90%
- inhibition at 100 µM [1]: 100%
- IC50 ([1]; Table 1): < 10 µM
- inhibition at 10 µM [2]: 0%
- inhibition at 30 µM [2]: 0%
- inhibition at 100 µM [2]: 0%
- IC50 ([2]; Table 1): > 100 µM

SMILES: O=C(CCNCCN(CCO)CCC(=O)c1ccc(Br)s1)c1ccc(Br)s1 [Example 354, 2-(N-5-bromothionylethylaminoethyl-N-hydroxyethyl)aminoethyl-5-bromo-2-thienylketone]
- inhibition at 10 µM [1]: 0%
- inhibition at 30 µM [1]: 0%
- inhibition at 100 µM [1]: 60%
- inhibition at 10 µM [2]: 0%
- inhibition at 30 µM [2]: 10%
- inhibition at 100 µM [2]: 10%

SMILES: O=C(CCN(CCO)Cc1ccccc1)c1ccncc1 [Example 135, 2-(N-benzylhydroxyethyl)aminoethyl-4-pyridylketone]
- inhibition at 10 µM [1]: 20%
- inhibition at 30 µM [1]: 10%
- inhibition at 100 µM [1]: 0%
- inhibition at 10 µM [2]: 0%
- inhibition at 30 µM [2]: 0%
- inhibition at 100 µM [2]: 0%

SMILES: O=C(CCCCl)c1ccncc1 [Example 192, 3-chloropropyl-4-pyridylketone]
- inhibition at 10 µM [1]: 0%
- inhibition at 30 µM [1]: 0%
- inhibition at 100 µM [1]: 0%
- inhibition at 10 µM [2]: 0%
- inhibition at 30 µM [2]: 10%
- inhibition at 100 µM [2]: 20%

SMILES: CCCCN(CCC(=O)c1ccc(Br)s1)c1ccccc1 [Example 337, 2-(N-phenyl-N-n-butyl)aminoethyl-5-bromo-2-thienylketone]
- inhibition at 10 µM [1]: 50%
- inhibition at 30 µM [1]: 20%
- inhibition at 100 µM [1]: 0%
- inhibition at 10 µM [2]: 20%
- inhibition at 30 µM [2]: 30%
- inhibition at 100 µM [2]: 40%

SMILES: CN(CCC(=O)c1ccc(Cc2ccccc2)cc1)Cc1ccccc1 [Example 104, 2-(N-methylbenzyl)aminoethyl-4-benzylphenylketone]
- inhibition at 10 µM [1]: 40%
- inhibition at 30 µM [1]: 20%
- inhibition at 100 µM [1]: 90%
- inhibition at 10 µM [2]: 0%
- inhibition at 30 µM [2]: 10%
- inhibition at 100 µM [2]: 70%

SMILES: CC(C)N(CCO)CCC(=O)c1cccn1C [Example 169, 2-(N-isopropyl-2-hydroxyethyl)aminoethyl-2-(N-methylpyrrolyl)ketone]
- inhibition at 10 µM [1]: 0%
- inhibition at 30 µM [1]: 0%
- inhibition at 100 µM [1]: 0%
- inhibition at 10 µM [2]: 0%
- inhibition at 30 µM [2]: 0%
- inhibition at 100 µM [2]: 0%

SMILES: CN(CCO)CCC(=O)c1ccccn1 [Example 251, 2-(N-methyl-2-hydroxyethyl)aminoethyl-2-pyridylketone]
- inhibition at 10 µM [1]: 0%
- inhibition at 30 µM [1]: 0%
- inhibition at 100 µM [1]: 0%
- inhibition at 10 µM [2]: 0%
- inhibition at 30 µM [2]: 0%
- inhibition at 100 µM [2]: 0%

SMILES: O=C(CCNCCc1ncc[nH]1)c1cccnc1 [Example 176]
- inhibition at 10 µM [1]: 10%
- inhibition at 30 µM [1]: 30%
- inhibition at 100 µM [1]: 50%
- inhibition at 10 µM [2]: 0%
- inhibition at 30 µM [2]: 0%
- inhibition at 100 µM [2]: 0%

SMILES: CCc1nccnc1C(=O)CCN(Cc1ccccc1)C(C)C [Example 186, 2-(N-isopropylbenzyl)aminoethyl-2-(3-ethyl)-pyrazylketone]
- inhibition at 10 µM [1]: 70%
- inhibition at 30 µM [1]: 90%
- inhibition at 100 µM [1]: 100%
- inhibition at 10 µM [2]: 0%
- inhibition at 30 µM [2]: 0%
- inhibition at 100 µM [2]: 10%

SMILES: CCc1nccnc1C(=O)CCN(CCO)CCO [Example 260, 2-(N-bis-hydroxyethyl)aminoethyl-3-ethyl-2-pyrazylketone]
- inhibition at 10 µM [1]: 20%
- inhibition at 30 µM [1]: 0%
- inhibition at 100 µM [1]: 20%
- inhibition at 10 µM [2]: 0%
- inhibition at 30 µM [2]: 0%
- inhibition at 100 µM [2]: 0%

SMILES: CC(CN(Cc1ccccc1)C(C)C)C(=O)c1ccccc1F (stereo not drawn) [Example 182, 1-methyl-2-(N-benzylisopropyl)aminoethyl-2-fluorophenylketone]
- inhibition at 10 µM [1]: 0%
- inhibition at 30 µM [1]: 0%
- inhibition at 100 µM [1]: 50%
- inhibition at 10 µM [2]: 10%
- inhibition at 30 µM [2]: 50%
- inhibition at 100 µM [2]: 80%

SMILES: CC(CN(CCO)C(C)C)C(=O)c1ccc(F)cc1 (stereo not drawn) [Example 157, 1-methyl-2-(N-hydroxyethylisopropyl)aminoethyl-4-fluorophenylketone]
- inhibition at 10 µM [1]: 0%
- inhibition at 30 µM [1]: 0%
- inhibition at 100 µM [1]: 0%
- inhibition at 10 µM [2]: 0%
- inhibition at 30 µM [2]: 0%
- inhibition at 100 µM [2]: 0%

SMILES: CC(C)N(CCC(=O)c1ccc[nH]1)Cc1ccccc1 [Example 110, 2-(N-isopropylbenzyl)aminoethyl-2-pyrroleketone]
- inhibition at 10 µM [1]: 20%
- inhibition at 30 µM [1]: 40%
- inhibition at 100 µM [1]: 100%
- inhibition at 10 µM [2]: 0%
- inhibition at 30 µM [2]: 0%
- inhibition at 100 µM [2]: 0%

SMILES: COC(=O)C(CSC)NCCC(=O)c1ccc(Br)s1 (stereo not drawn) [Example 409, N,N-bis(2-(5-bromo-2-thiophenoyl)ethyl)cystinemethylester]
- inhibition at 10 µM [1]: 26%
- inhibition at 30 µM [1]: 76%
- inhibition at 100 µM [1]: 81%
- inhibition at 10 µM [2]: 20%
- inhibition at 30 µM [2]: 40%
- inhibition at 100 µM [2]: 50%

SMILES: O=C(CCN(CCO)Cc1ccccc1)c1ccc(Br)s1 [Example 327, 2-(N-benzylhydroxyethyl)aminoethyl-5-bromo-2-thienylketone]
- inhibition at 10 µM [1]: 70%
- inhibition at 30 µM [1]: 10%
- inhibition at 100 µM [1]: 40%
- inhibition at 10 µM [2]: 20%
- inhibition at 30 µM [2]: 20%
- inhibition at 100 µM [2]: 30%

SMILES: O=C(CCNCCc1cnc[nH]1)c1ccc(Br)s1 [Example 364, 2-(4-imidazolylethyl)aminoethyl-5-bromo-2-thienylketone]
- inhibition at 10 µM [1]: 0%
- inhibition at 30 µM [1]: 0%
- inhibition at 100 µM [1]: 40%
- inhibition at 10 µM [2]: 24%
- inhibition at 30 µM [2]: 49%
- inhibition at 100 µM [2]: 70%

SMILES: CN(CCO)CCC(=O)c1ccncc1 [Example 262, 2-(N-2-hydroxyethylmethyl)aminoethyl-4-pyridylketone]
- inhibition at 10 µM [1]: 0%
- inhibition at 30 µM [1]: 0%
- inhibition at 100 µM [1]: 70%
- inhibition at 10 µM [2]: 0%
- inhibition at 30 µM [2]: 0%
- inhibition at 100 µM [2]: 0%
